Reference: patent US20140271734A1, “BILE ACID RECYCLING INHIBITORS FOR TREATMENT OF BARRETT'S ESOPHAGUS AND GASTROESOPHAGEAL REFLUX DISEASE” (LUMENA PHARMACEUTICALS, INC., priority 2013, published 2014)
Like-named read-outs stand apart in the source and are kept apart here.

Tests used:
[1] = Toxicokinetics of LUM001 free form, 13-week oral gavage toxicity study in rats; assay type: in vivo; details: for AUC(0-t) / Cmax / Tmax: rat, plasma, oral; for AUC(0-t): read-out: AUC(0-24 h)
Method: Charles River CD IGS rats were assigned to treatment groups (9sex/toxicokinetic group) and were administered daily doses of 0, 5, 30, 75, and 150 mg/kg (males) or 0, 5, 30, 150, and 500 mg/kg (females). LUM001 was administered by once daily oral gavage in distilled water and fresh dosing solutions were prepared weekly. All animals were dosed with 10 mL/kg/day based on the most recently determined body weights. On Day 1 and during Week 12, approximately 1 mL of venous blood was collected in heparinized tubes from the retro-orbital venous plexus. Animals were anesthetized with CO2-O2 and blood samples were collected at 1, 2, 3, 5, 8, and 24 hours post-dose. Survival permitting, the first 3 animals/sex dose group were bled at 1 and 5 hours post-dose, the second 3 animals/sex/dose group were bled at 2 and 8 hours post-dose, and the last 3 animals/sex/dose group were bled at 3 and 24 hours post-dose. Blood collection tubes were kept on ice during the collection period after which they were centrifuged and the plasma was harvested within approximately 60 minutes of blood collection. Plasma samples were stored at approximately −20° C. or lower until analyzed.
The concentration of LUM001 free form in plasma were determined using an LCMSMS method. The assay sensitivity was 4.75 ng/mL. Means and standard errors of the means (SEM) were calculated for plasma concentrations at each time point. Mean values are significant to three figures and SEM values are significant to the same decimal place as the corresponding mean. Concentration values less than the assay sensitivity (4.75 ng LUM001 free form/mL) were reported as zero. The observed peak plasma concentrations (Cmax) of LUM001 free form, time to reach peak plasma concentration (Tmax) and areas under the plasma concentration-time curve (AUC0-24) were calculated by the TOXAUC computer program (1). For calculation purposes the 0 hr plasma concentrations were set to zero on Day 1 and to the concentrations at 24 hr post dose on Day 78. The TK parameters were calculated from mean data for each group of rats. The bioavailability (% BA) of LUM001 after oral administration of LUM001 was calculated according to the equation below:
% BA=[AUC oral (0-8)/AUC IV(0-8)/Dose oral/Dose IV]×100

[2] = system: postprandial serum bile acids AUC; assay: Inhibition of the postprandial rise in SBA, LUM001 compared to cholestyramine; assay type: in vivo, dogs
Method: LUM001 was dissolved in 0.2% Tween 80 at concentrations that required the administration of 0.2 ml dosing solution/kg of body weight at each dose tested. Cholestyramine was suspended in water at concentrations that required the administration of 2.5 ml/kg (500 mg/kg) and 1 ml/kg (200 mg/kg). The appropriate volume of solution formulation for each animal was placed into a gelatin capsule, Torpac Inc., size 13, Batch 594, East Hanover, N.J. and administered per os. Test compounds were administered as single oral doses to groups of dogs, 3 to 9 dogs per group at varying dosages. LUM001 and cholestyramine were administered in solution 30 minutes prior to feeding and blood samples collected at 30-minute intervals for four hours after feeding. LUM001 was given at 0, 0.02, 0.05, 0.2, 0.6, 2, 5 or 15 mg/kg. Cholestyramine was administered at 200 or 500 mg/kg. […] No dog received any one compound dosage more than once. SBA was measured by an enzymatic assay. SBA values are expressed as μg of total bile acids/ml of serum.

[3] = both sexes, CD IGS, Day 1, 150 mg/kg, Comb
[4] = both sexes, Charles River CD IGS, Day 78, 30.0 mg/kg, Comb
[5] = both sexes, Charles River CD IGS, Day 78, 150 mg/kg, Comb
[6] = female, CD IGS, Day 1, 150 mg/kg, F
[7] = female, CD IGS, Day 1, 500 mg/kg, F
[8] = female, Charles River CD IGS, Day 78, 30.0 mg/kg, F
[9] = female, Charles River CD IGS, Day 78, 150 mg/kg, F
[10] = female, Charles River CD IGS, Day 78, 500 mg/kg, F
[11] = male, CD IGS, Day 1, 30.0 mg/kg, M
[12] = male, CD IGS, Day 1, 75.0 mg/kg, M
[13] = male, CD IGS, Day 1, 150 mg/kg, M
[14] = male, Charles River CD IGS, Day 78, 5.0 mg/kg, M
[15] = male, Charles River CD IGS, Day 78, 30.0 mg/kg, M
[16] = male, Charles River CD IGS, Day 78, 75.0 mg/kg, M
[17] = male, Charles River CD IGS, Day 78, 150 mg/kg, M

**Q.** Which results are given for `CCCCC1(CCCC)CS(=O)(=O)c2ccc(N(C)C)cc2[C@@H](c2ccc(OCc3ccc(C[N+]45CCN(CC4)CC5)cc3)cc2)[C@H]1O` [LUM001]?
**A.** BA ([1]; Day 1, 5.0 mg/kg, F): <0.1%; BA ([1]; Day 1, 5.0 mg/kg, M): <0.1%; BA ([1]; Day 1, 30.0 mg/kg, F): <0.1%; BA ([1]; Day 1, 75.0 mg/kg, M): <0.1%; BA ([1]; Day 1, 150 mg/kg, Comb): <0.1%; BA ([1]; Day 1, 500 mg/kg, F): <0.1%; BA ([1]; Day 78, 5.0 mg/kg, F): <0.1%; BA ([1]; Day 78, 30.0 mg/kg, Comb): <0.1%; BA ([1]; Day 78, 75.0 mg/kg, M): <0.1%; BA ([1]; Day 78, 150 mg/kg, Comb): <0.1%; BA ([1]; Day 78, 500 mg/kg, F): <0.1%; AUC(0-t) ([1]; both sexes, CD IGS, 150 mg/kg, Day 1, 150 mg/kg, Comb): 101 ng·h/mL; Cmax [1, 3]: 37.3 ng/mL; Tmax [1, 3]: 2 h; AUC(0-t) ([1]; both sexes, Charles River CD IGS, 30 mg/kg, Day 78, 30.0 mg/kg, Comb): 11.7 ng·h/mL; AUC(0-t) ([1]; both sexes, Charles River CD IGS, 150 mg/kg, Day 78, 150 mg/kg, Comb): 132 ng·h/mL; Cmax [1, 4]: 4.35 ng/mL; Tmax [1, 4]: 3 h; Cmax [1, 5]: 24.1 ng/mL; Tmax [1, 5]: 1 h; AUC(0-t) ([1]; female, CD IGS, 150 mg/kg, Day 1, 150 mg/kg, F): 106 ng·h/mL; Cmax [1, 6]: 42.4 ng/mL; Tmax [1, 6]: 2 h; Cmax [1, 7]: 9.99 ng/mL; Tmax [1, 7]: 3 h; AUC(0-t) ([1]; female, Charles River CD IGS, 30 mg/kg, Day 78, 30.0 mg/kg, F): 12.4 ng·h/mL; AUC(0-t) ([1]; female, Charles River CD IGS, 150 mg/kg, Day 78, 150 mg/kg, F): 124 ng·h/mL; AUC(0-t) ([1]; female, Charles River CD IGS, 500 mg/kg, Day 1, 500 mg/kg, F): 90.8 ng·h/mL; AUC(0-t) ([1]; female, Charles River CD IGS, 500 mg/kg, Day 78, 500 mg/kg, F): 470 ng·h/mL; Cmax [1, 8]: 3.95 ng/mL; Tmax [1, 8]: 3 h; Cmax [1, 9]: 22.2 ng/mL; Tmax [1, 9]: 2 h; Cmax [1, 10]: 62.9 ng/mL; Tmax [1, 10]: 3 h; AUC(0-t) ([1]; male, CD IGS, 30 mg/kg, Day 1, 30.0 mg/kg, M): 15.1 ng·h/mL; AUC(0-t) ([1]; male, CD IGS, 75 mg/kg, Day 1, 75.0 mg/kg, M): 6.37 ng·h/mL; AUC(0-t) ([1]; male, CD IGS, 150 mg/kg, Day 1, 150 mg/kg, M): 96.3 ng·h/mL; Cmax [1, 11]: 8.59 ng/mL; Tmax [1, 11]: 2 h; Cmax [1, 12]: 2.55 ng/mL; Tmax [1, 12]: 5 h; Cmax [1, 13]: 32.1 ng/mL; Tmax [1, 13]: 3 h; AUC(0-t) ([1]; male, Charles River CD IGS, 5 mg/kg, Day 78, 5.0 mg/kg, M): 11.1 ng·h/mL; AUC(0-t) ([1]; male, Charles River CD IGS, 30 mg/kg, Day 78, 30.0 mg/kg, M): 11.4 ng·h/mL; AUC(0-t) ([1]; male, Charles River CD IGS, 75 mg/kg, Day 78, 75.0 mg/kg, M): 61.4 ng·h/mL; AUC(0-t) ([1]; male, Charles River CD IGS, 150 mg/kg, Day 78, 150 mg/kg, M): 141 ng·h/mL; Cmax [1, 14]: 5.8 ng/mL; Tmax [1, 14]: 2 h; Cmax [1, 15]: 4.75 ng/mL; Tmax [1, 15]: 3 h; Cmax [1, 16]: 5.71 ng/mL; Tmax [1, 16]: 8 h; Cmax [1, 17]: 28.3 ng/mL; Tmax [1, 17]: 1 h; Inhibition of postprandial serum bile acids AUC (0-240 min) compared to cholestyramine ([2]; LUM001 0.02-15 mg/kg vs cholestyramine 200 or 500 mg/kg, single oral doses): superior inhibition of postprandial serum bile acids AUC, at a lower dose; Serum bile acids ([2]; single oral dose 0.02-15 mg/kg 30 minutes prior to feeding): significantly decreased serum bile acids
